For 21 compounds, IC90 results are on record in US20240376073A1 (Hoffmann-La Roche Inc., priority 2021, published 2024).

Where a name gives a salt, the structure may show the parent alone.

For orientation: IC90 means the concentration at which the effect reaches the 90% level.

One test concerns Acinetobacter baumannii ATCC17961. Nature of the test: Antimicrobial susceptibility testing: 90% growth inhibitory concentration (IC90) determination. Type of test: cell-based. The following applies: Acinetobacter baumannii ATCC17961; Iso-Sensitest broth; growth by OD 600 nm over 16 h; 35±2° C.; read-out: ATCC 17961 IC90. As to the method: The in vitro antimicrobial activity of the compounds was determined according to the following procedure:
The assay used a 10-points Iso-Sensitest broth medium to measure quantitatively the in vitro activity of the compounds against Acinetobacter baumannii ATCC17961.
Stock compounds in DMSO were serially twofold diluted (e.g. range from 50 to 0.097 μM final concentration) in 384 wells microtiter plates and inoculated with 49 μl the bacterial suspension in Iso-Sensitest medium to have a final cell concentration of ˜5×10^(5) CFU/ml in a final volume/well of 50 ul/well. Microtiter plates were incubated at 35±2° C.
Bacterial cell growth was determined with the measurement of optical density at λ=600 nm each 20 minutes over a time course of 16 h. Growth inhibition was calculated during the logarithmic growth of the bacterial cells with determination of the concentration inhibiting 50% (IC50) and 90% (IC90) of the growth.
Table 1 provides the […] growth inhibitory concentrations (IC90) in micromoles per liter of the compounds of present invention obtained against the strain Acinetobacter baumannii ATCC17961.
Turning to `Cn1c(-c2ccc(OC(F)F)c(F)c2F)cnc1C(=O)Nc1ccc(C(=O)N2CCN(C(=O)[C@H]3[C@@H]4C[N+](C)(CC(N)=O)C[C@@H]43)CC2)c(Cl)c1` (mixture of isomers) [Example C4, N-[4-[4-[(1R,5S)-3-(2-amino-2-oxo-ethyl)-3-methyl-3-azoniabi-cyclo[3.1.0]-hexane-6-carbonyl]-piperazine-1-carbonyl]-3-chloro-phenyl]-5-[4-(difluoro-methoxy)-2,3-difluoro-phen-yl]-1-methyl-imidazole-2-carboxamide; formate], the IC90 is 31 nM.
Turning to `Cn1c(-c2ccc(OCF)c(F)c2F)cnc1C(=O)Nc1ccc(C(=O)N2CCN(C(=O)[C@H]3[C@@H]4C[N+](C)(CC(=O)O)C[C@@H]43)CC2)c(Cl)c1` (mixture of isomers) [Example C30, 2-[(1R,5S)-6-[4-[2-chloro-4-[[5-[2,3-difluoro-4-(fluoromethoxy)phenyl]-1-meth-yl-imidazole-2-carbonyl]amino]-benzoyl]piper-azine-1-carbon-yl]-3-methyl-3-azoniabicyclo-[3.1.0]hexan-3-yl]acetic acid; 2,2,2-trifluoro-acetate], the IC90 was found to be 540 nM.
The same measure, in the same setting: the result for `COc1ccc(-c2cnc(C(=O)Nc3ccc(C(=O)N4CCC(CC[N+](C)(C)C)CC4)c(Cl)c3)n2C)c(F)c1F` [Example A1, 2-[1-[2-Chloro-4-[[5-(2,3-difluoro-4-methoxy-phenyl)-1-methyl-imidazole-2-carbonyl]amino]benzoyl]-4-piperidyl]ethyl-trimethyl-ammonium;formate] reads 79 nM.
Consider `COc1ccc(-c2cnc(C(=O)Nc3ccc(C(=O)NCCCCC[N+](C)(C)C)c(Cl)c3)n2C)c(F)c1F` [Example A2, 5-[[2-Chloro-4-[[5-(2,3-difluoro-4-methoxy-phenyl)-1-methyl-imidazole-2-carbonyl]amino]benzoyl]amino]pentyl-trimethyl-ammonium;formate], for which the IC90 is 340 nM.
Regarding `COc1ccc(-c2cnc(C(=O)Nc3ccc(C(=O)NCCCCC[N+](C)(C)CC(N)=O)c(Cl)c3)n2C)c(F)c1F` [Example A3, (2-amino-2-oxo-ethyl)-[5-[[2-chloro-4-[[5-(2,3-difluoro-4-methoxy-phenyl)-1-methyl-imidazole-2-carbonyl]amino]benzoyl]amino]pentyl]-dimethyl-ammonium; formate], the IC90 was 160 nM.
With `COc1ccc(-c2cnc(C(=O)Nc3ccc(C(=O)N4CCN(CC[N+](C)(C)CC(N)=O)CC4)c(Cl)c3)n2C)c(F)c1F` [Example A4, (2-amino-2-oxo-ethyl)-[2-[4-[2-chloro-4-[[5-(2,3-difluoro-4-methoxy-phenyl)-1-methyl-imidazole-2-carbonyl]amino]benzoyl]piperazin-1-yl]ethyl]-dimethyl-ammonium; formate], the IC90 is 210 nM.
The same measure, in the same setting: the value for `CCc1cc(NC(=O)c2ncc(-c3ccc(OC)c(F)c3F)n2C)ccc1C(=O)NCCOCC[N+](C)(C)C` [Example A5, 2-(2-(4-(5-(2,3-difluoro-4-methoxyphenyl)-1-methyl-1H-imidazole-2-carboxamido)-2-ethylbenzamido)ethoxy)-N,N,N-trimethylethan-1-aminium iodide] was 460 nM; that for `CCc1cc(NC(=O)c2ncc(-c3ccc(OC)c(F)c3F)n2C)ccc1C(=O)N1CCN(CCC[N+](C)(C)C)CC1` [Example A6, 3-(4-(4-(5-(2,3-difluoro-4-methoxyphenyl)-1-methyl-1H-imidazole-2-carboxamido)-2-ethylbenzoyl)piperazin-1-yl)-N,N,N-trimethylpropan-1-aminium iodide] was 1500 nM.
As for `Cc1cc(NC(=O)c2ncc(-c3ccc(OCC#N)c(F)c3F)n2C)ccc1C(=O)N1CCN(C(=O)C[N+](C)(C)C)CC1` [Example A8, [2-[4-[4-[[5-[4-(cyanomethoxy)-2,3-difluoro-phenyl]-1-methyl-imidazole-2-carbonyl]amino]-2-methyl-benzoyl]piperazin-1-yl]-2-oxo-ethyl]-trimethyl-ammonium; iodide], the IC90 is 310 nM.
The same measure, in the same setting: the value for `COc1ccc(-c2cnc(C(=O)Nc3ccc(C(=O)N4CCN(CC[N+](C)(C)C)CC4)c(Cl)c3)n2C)c(F)c1F` [Example A9, 2-[4-[2-chloro-4-[[5-(2,3-difluoro-4-methoxy-phenyl)-1-methyl-imidazole-2-carbonyl]amino]benzoyl]piperazin-1-yl]ethyl-trimethyl-ammonium; iodide] was 130 nM.
On the same count and under the same terms, the result for `COc1ccc(-c2cnc(C(=O)Nc3ccc(C(=O)N[C@H]4C[C@@H](NC(=O)C[N+](C)(C)C)C4)c(Cl)c3)n2C)c(F)c1F` [Example A10, [2-[[3-[[2-Chloro-4-[[5-(2,3-difluoro-4-methoxy-phenyl)-1-methyl-imidazole-2-carbonyl]amino]benzoyl]amino]cyclobutyl]amino]-2-oxo-ethyl]-trimethyl-ammonium formate] reads 84 nM; that for `COc1ccc(-c2cnc(C(=O)Nc3ccc(C(=O)N[C@H]4C[C@@H](NCC[N+](C)(C)C)C4)c(Cl)c3)n2C)c(F)c1F` [Example A11, 2-[[3-[[2-chloro-4-[[5-(2,3-difluoro-4-methoxy-phenyl)-1-methyl-imidazole-2-carbonyl]amino]benzoyl]amino]cyclobutyl]amino]ethyl-trimethyl-ammonium; formic acid; formate], 570 nM; that for `Cn1c(-c2ccc(OCC#N)c(F)c2F)cnc1C(=O)Nc1ccc(C(=O)NCCCNC(=O)C[N+](C)(C)C)c(Cl)c1` [Example A12, [2-[3-[[2-chloro-4-[[5-[4-(cyanomethoxy)-2,3-difluoro-phenyl]-1-methyl-imidazole-2-carbonyl]amino]benzoyl]amino]propylamino]-2-oxo-ethyl]-trimethyl-ammonium formate], 350 nM.
On the same count and under the same terms, the result for `Cn1c(-c2ccc(OCC#N)c(F)c2F)cnc1C(=O)Nc1ccc(C(=O)NCCOCC[N+](C)(C)CC(N)=O)c(Cl)c1` [Example A13, (2-amino-2-oxo-ethyl)-[2-[2-[[2-chloro-4-[[5-[4-(cyanomethoxy)-2,3-difluoro-phenyl]-1-methyl-imidazole-2-carbonyl]amino]benzoyl]amino]ethoxy]ethyl]-dimethyl-ammonium formate] reads 640 nM; that for `Cn1c(-c2ccc(OCC#N)c(F)c2F)cnc1C(=O)Nc1ccc(C(=O)NCCNC(=O)C[N+](C)(C)C)c(Cl)c1` [Example A14, [2-[2-[2-chloro-4-[[5-[4-(cyanomethoxy)-2,3-difluoro-phenyl]-1-methyl-imidazole-2-carbonyl]amino]benzoyl]amino]ethylamino]-2-oxo-ethyl]-trimethyl-ammonium formate], 600 nM; that for `Cn1c(-c2ccc(OCC#N)c(F)c2F)cnc1C(=O)Nc1ccc(C(=O)NCCOCC[N+](C)(C)C)c(Cl)c1` [Example A15, 2-[2-[[2-chloro-4-[[5-[4-(cyanomethoxy)-2,3-difluoro-phenyl]-1-methyl-imidazole-2-carbonyl]amino]benzoyl]amino]ethoxy]ethyl-trimethyl-ammonium formate], 770 nM.
As for `Cn1c(-c2ccc(OCC#N)c(F)c2F)cnc1C(=O)Nc1ccc(C(=O)N[C@H]2C[C@@H](NC(=O)C[N+](C)(C)C)C2)c(Cl)c1` [Example A16, [2-[[3-[2-chloro-4-[[5-[4-(cyanomethoxy)-2,3-difluoro-phenyl]-1-methyl-imidazole-2-carbonyl]amino]benzoyl]amino]cyclobutyl]amino]-2-oxo-ethyl]-trimethyl-ammonium formate], the IC90 was found to be 88 nM.
For `Cn1c(-c2ccc(OCC#N)c(F)c2F)cnc1C(=O)Nc1ccc(C(=O)N[C@H]2C[C@@H](NCC[N+](C)(C)C)C2)c(Cl)c1` [Example A17, 2-[[3-[[2-chloro-4-[[5-[4-(cyanomethoxy)-2,3-difluoro-phenyl]-1-methyl-imidazole-2-carbonyl]amino]benzoyl]amino]cyclobutyl]amino]ethyl-trimethyl-ammonium formate], the IC90 turned out to be 340 nM.
On the same count and under the same terms, the value for `Cc1cc(NC(=O)c2ncc(-c3ccc(OCC#N)c(F)c3F)n2C)ccc1C(=O)N[C@H]1C[C@@H](NC(=O)C[N+](C)(C)C)C1` [Example A18, [2-[[3-[[4-[5-[4-(cyanomethoxy)-2,3-difluoro-phenyl]-1-methyl-imidazole-2-carbonyl]amino]-2-methyl-benzoyl]amino]cyclobutyl]amino]-2-oxo-ethyl]-trimethyl-ammonium formate] was 240 nM.

The test is the same for the next values; noted with them: Acinetobacter baumannii, ATCC17961, 16 h, read-out: ATCC 17961 IC90, Acinetobacter baumannii ATCC17961; Iso-Sensitest broth; growth by OD 600 nm over 16 h; 35±2° C.
Regarding `Cn1c(-c2ccc(OCC#N)c(F)c2F)cnc1C(=O)Nc1ccc(C(=O)N2CCN(C(=O)C[N+](C)(C)C)CC2)c(Cl)c1` [Example A7, [2-[4-[2-chloro-4-[[5-[4-(cyanomethoxy)-2,3-difluoro-phenyl]-1-methyl-imidazole-2-carbonyl]amino]benzoyl]piperazin-1-yl]-2-oxo-ethyl]-trimethyl-ammonium; formate; iodide], the IC90 was 93 nM.

Still in this test, the particulars now being: read-out: ATCC 17961 IC90; Acinetobacter baumannii ATCC17961; Iso-Sensitest broth; growth by OD 600 nm over 16 h; 35±2° C.; formate.
In the case of `COc1ccc(-c2cnc(C(=O)Nc3ccc(C(=O)N4CCN(C(=O)C5C[C@H](O)C[N+]5(C)C)CC4)c(Cl)c3)n2C)c(F)c1F` (stereo in doubt) [Example B37, N-[3-chloro-4-[4-[(2R,4S)-4-hydroxy-1,1-dimethyl-pyrrolidin-1-ium-2-carbonyl]piperazine-1-carbonyl]phenyl]-5-(2,3-difluoro-4-methoxy-phenyl)-1-methyl-imidazole-2-carboxamide; formate], the IC90 amounted to 190 nM.
